Source: patent US5077289A (priority 1989, dated 1991)
Structures can show the parent of a compound that is named as a salt. Where two headings read alike, the source gives them in different places.

Assays:
[1] = test system: Scopolamine Induced Memory Deficit; assay: Dark Avoidance Assay (reversal of scopolamine induced memory deficit); type: in vivo; conditions: mice, s.c.
Experimental: In this assay mice are tested for their ability to remember an unpleasant stimulus for a period of 24 hours. A mouse is placed in a chamber that contains a dark compartment; a strong incandescent light drives it to the dark compartment, where an electric shock is administered through metal plates on the floor. The animal is removed from the testing apparatus and tested again, 24 hours later, for the ability to remember the electric shock.
If scopolamine, an anticholinergic that is known to cause memory impairment, is administered before an animal's initial exposure to the test chamber, the animal re-enters the dark compartment shortly after being placed in the test chamber 24 hours later. This effect of scopolamine is blocked by an active test compound, resulting in a greater interval before re-entry into the dark compartment.
The results for an active compound are expressed as the percent of a group of animals in which the effect of scopolamine is blocked, as manifested by an increased interval between being placed in the test chamber and re-entering the dark compartment.

[2] = test system: 2-phenyl-1,4-benzoquinone-induced writhing; assay: Inhibition of phenylquinone-induced writhing in mice (PQW), analgesic activity; type: in vivo, mice (male CD-1 Charles River); conditions: Mus musculus, sc, read-out: ANALGESIC ACTIVITY, POW (ED50)
Experimental: Compounds I of the present invention are also useful as analgesic agents due to their ability to alleviate pain in mammals. […] Exptl. Biol. Med., 95, 729 (1957)].
A 0.125% concentration of phenyl-p-benzoquinone in a 5% aqueous solution of ethyl alcohol is administered to mice (10 mL/kg, ip). This produces a characteristic "writhe" which is defined as an inward rotation of one or more feet with twisting and turning of the trunk, drawing in of the abdominal wall, lordosis, and arching of the back. A total of 28 male CD-1 Charles River mice (18-30 g) are employed for a time-response. Animals receive food and water ad libitum during their stay in the animal quarters prior to testing. Compounds are tested at 20 mg/kg, sc and are prepared with distilled water, and if insoluble one drop of Tween-80, a surfactant is added. Compounds are administered in a dosage volume of 10 mL/kg.
Twenty mice (five per group) are administered the test compound at various pretreat time (e.g., 15, 30, 45, and 60 min) prior to phenylquinone injection. Control animals (two per group) receive an equal volume of vehicle. After the administration of phenylquinone, the mice are placed separately into 1-L beakers, and 5 min are allowed to elapse. The mice are then observed for a period of 10 min, and the number of writhers is recorded for each animal. The formula for computing percent inhibition is [formula]
The time period with the maximum percent of inhibition is considered the peak time. A dose-response is reserved for interesting compounds or those which inhibit writhing by 70% or more. A dose-response is run in the same manner as a time-response except 10 animals per group are tested at the peak time of drug activity. Fifty animals, divided among four drug groups and one vehicle control group, are employed. The mice are normally given four doses of drug, each twice the amount of the preceding dose. An ED50 is calculated by a computer linear regression analysis.
Results of this assay for some of the compounds of this invention and eseroline salicylate (reference compound) are shown in Table 3.

[3] = target: T1, Brain AChE (Rattus norvegicus, UniProt P37136); assay: In vitro inhibition of acetylcholinesterase activity in rat striatum (modified Ellman); type: biochemical, rat (male Wistar)
T1 construct: brains rapidly removed, corpora striata dissected free, weighed and homogenized in 19 volumes; from tissue; host or cells: corpus striatum homogenate of male Wistar rats
T1 sequence (P37136 32-614): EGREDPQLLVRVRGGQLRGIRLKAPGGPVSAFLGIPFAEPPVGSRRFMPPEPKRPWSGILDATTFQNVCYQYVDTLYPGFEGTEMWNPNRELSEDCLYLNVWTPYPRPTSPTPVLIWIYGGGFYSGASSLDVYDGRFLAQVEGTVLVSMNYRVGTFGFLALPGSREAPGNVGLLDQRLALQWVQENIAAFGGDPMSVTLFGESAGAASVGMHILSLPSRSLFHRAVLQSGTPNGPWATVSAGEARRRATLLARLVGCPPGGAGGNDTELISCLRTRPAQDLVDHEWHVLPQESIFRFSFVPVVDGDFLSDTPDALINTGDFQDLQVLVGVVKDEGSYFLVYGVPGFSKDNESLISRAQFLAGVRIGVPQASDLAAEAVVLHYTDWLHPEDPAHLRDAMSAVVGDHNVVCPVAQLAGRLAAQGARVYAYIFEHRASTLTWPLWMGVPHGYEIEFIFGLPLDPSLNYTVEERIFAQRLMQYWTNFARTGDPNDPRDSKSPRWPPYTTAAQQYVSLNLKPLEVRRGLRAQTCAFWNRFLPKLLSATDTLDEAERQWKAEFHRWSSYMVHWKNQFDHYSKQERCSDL
Experimental: Cholinesterases are found throughout the body, both in the brain and in serum. However, only brain acetylcholinesterase (AChE) distribution is correlated with central cholinergic innervation.
This is a modification of the method of Ellman et al., Biochem. Pharmacol. 7, 98 (1961).
1. 0.05M Phosphate buffer, pH 7.2
(a) 6.85 g NaH2 PO4 .cndot.H2 O/100 ml distilled H2 O
(c) add (a) to (b) until pH reaches 7.2
(a) 9.9 mg 5,5-dithiobisnitrobenzoic acid (DTNB) (0.25 mM)
(c) q.s. to 100 ml with 0.05M phosphate buffer, pH 7.2 (reagent 1)
3. For most assays, a […] stock solution of the test drug is made up in a suitable solvent and serially diluted such that the final concentration in the preincubation step ranges from 10^-3 to 10^-6 M. Different concentrations may be used depending on the potency of the drug. […]
Following the 10 minute preincubation of the tissue (enzyme) with the inhibitor, the samples are mixed with the substrate chromogen buffer by the ABA-100. Using the indicated instrument settings the ABA-100 automatically reads the color reaction and prints out the results in enzyme units after 15 minutes.
2. The enzyme activity can also be measured with a Gilford 250 spectrophotometer. […]
The uninhibited activity of the enzyme (tissue homogenate) is first determined. […] The reaction rate is determined by the slope of the recorded absorbance change. […]

SMILES | % of Animals with Scopolamine Induced Memory Deficit Reversal ([1]; 0.16 mg/kg of body weight) | ED50 [2] | further results
CNC(=O)N(C)C(=O)Oc1ccc2c(c1)[C@]1(C)CCN(C)[C@@H]1N2C [Example 1, (3aS-cis)-1,2,3,3a,8,8a-Hexahydro-1,3a,8-trimethylpyrrolo[2,3-b]indol-5-yl methyl[(methylamino)carbonyl] carbamate] | 20% | 8 mg/kg | 
CCCNC(=O)N(CCC)C(=O)Oc1ccc2c(c1)[C@]1(C)CCN(C)[C@@H]1N2C [Example 4, (3aS-cis)-1,2,3,3a,8,8a-Hexahydro-1,3a,8-trimethylpyrrolo[2,3-b]indol-5-yl propyl[(propylamino)carbonyl] carbamate oxalate] | 40% |  | % of Animals with Scopolamine Induced Memory Deficit Reversal ([1]; 2.50 mg/kg of body weight): 36%
CN(C(=O)Nc1cccc(Cl)c1)C(=O)Oc1ccc2c(c1)[C@]1(C)CCN(C)[C@@H]1N2C [Example 5, (3aS-cis)-1,2,3,3a,8,8a-Hexahydro-1,3a,8-trimethylpyrrolo[2,3-b]indol-5-yl methyl[[(3-chlorophenyl)amino]carbonyl] carbamate] |  | 0.15 mg/kg | IC50 [3]: 207 nM
CN1CC[C@@]2(C)c3cc(O)ccc3N(C)[C@@H]12 [Eseroline Salicylate, reference compound] |  |  | ED50 ([2]; mice, s.c., ED50 by linear regression per method, at peak time): 0.52 mg/kg
CNC(=O)N(C)C(=O)Oc1cc(C)c2c(c1)[C@]1(C)CCN(C)[C@@H]1N2C [Example 2, (3aS-cis)-1,2,3,3a,8,8a-Hexahydro-1,3a,7,8-tetramethylpyrrolo[2,3-b]indol-5-yl methyl[(methylamino)carbonyl] carbamate] |  | 0.81 mg/kg | 
CNC(=O)Oc1ccc2c(c1)[C@]1(C)CCN(C)[C@@H]1N2C [Physostigmine, reference compound] |  |  | % of Animals with Scopolamine Induced Memory Deficit Reversal ([1]; 0.31 mg/kg of body weight): 20%
